Experimental data: the NIST ThermoML archive (doi:10.1021/je0201976)
Several values for one entry are separate records, joined by “and”; a condition that tells them apart may be missing. Equal values may be shown once. Numbers after ± are expanded uncertainties.

Details: Liquid

FC(F)OCC(F)(F)C(F)(F)F [difluoromethyl 2,2,3,3,3-pentafluoropropyl ether]
Details | Critical density [kg/m3] | Critical pressure [kPa] | Critical temperature [K] | vapor or sublimation pressure [kPa]
– | 576 ± 2 | – | – | –
298.42 K | – | – | – | 44.2 ± 1
322.49 K | – | – | – | 111.5 ± 1.1
332.63 K | – | – | – | 157.2 ± 1.1
342.7 K | – | – | – | 216.6 ± 1.2
352.65 K | – | – | – | 290.7 ± 1.3
362.73 K | – | – | – | 384.1 ± 1.5
372.78 K | – | – | – | 498.1 ± 1.8
382.79 K | – | – | – | 637.5 ± 2.1
392.82 K | – | – | – | 807.7 ± 2.5
402.86 K | – | – | – | 1006.3 ± 3.2
412.9 K | – | – | – | 1244.5 ± 3.9
422.93 K | – | – | – | 1524.9 ± 4.8
432.96 K | – | – | – | 1858.4 ± 5.8
442.98 K | – | – | – | 2203.3 ± 6.9
454.99 K | – | – | – | 2769 ± 8.7
455.27 K | – | – | – | 2796.4 ± 8.8
Direct measurement | – | 2773 ± 9 | – | –
Visual observation in an unstirred cell | – | – | 455.1 ± 0.1 | –

FC(F)(F)COCC(F)(F)F [1,1,1-trifluoro-2-(2,2,2-trifluoroethoxy)ethane]
Details | Critical density [kg/m3] | Critical pressure [kPa] | Critical temperature [K] | vapor or sublimation pressure
– | 500 ± 2 | – | – | –
293.4 K | – | – | – | 18 ± 1 kPa
293.59 K | – | – | – | 18.2 ± 1 kPa
303.09 K | – | – | – | 27.9 ± 1 kPa
303.12 K | – | – | – | 28 ± 1 kPa
313.12 K | – | – | – | 42.6 ± 1 kPa
313.14 K | – | – | – | 42.8 ± 1 kPa
323.15 K | – | – | – | 63.3 ± 1 kPa
323.17 K | – | – | – | 63.4 ± 1 kPa
333.2 K | – | – | – | 91.3 ± 1 kPa and 91.4 ± 1 kPa
338.22 K | – | – | – | 109 ± 1.1 kPa
343.24 K | – | – | – | 129.2 ± 1.1 kPa
353.27 K | – | – | – | 178.3 ± 1.1 kPa
353.28 K | – | – | – | 178.3 ± 1.1 kPa
363.31 K | – | – | – | 241.1 ± 1.2 kPa
373.34 K | – | – | – | 320 ± 1.4 kPa
373.35 K | – | – | – | 320.1 ± 1.4 kPa
383.38 K | – | – | – | 417.4 ± 1.6 kPa and 417.3 ± 1.6 kPa
393.43 K | – | – | – | 536.2 ± 1.8 kPa and 536.3 ± 1.8 kPa
Direct measurement | – | 2783 ± 5 | – | –
Visual observation in an unstirred cell | – | – | 476.31 ± 0.09 | –

CCOC(F)(F)C(F)(F)C(F)(F)C(F)(F)F [1-ethoxy-1,1,2,2,3,3,4,4,4-nonafluorobutane]
Details | Critical density [kg/m3] | Critical pressure [kPa] | Critical temperature [K] | vapor or sublimation pressure [kPa]
– | 518 ± 2 | – | – | –
309.21 K | – | – | – | 22.5 ± 1
332.68 K | – | – | – | 57 ± 1
342.71 K | – | – | – | 80.7 ± 1
347.73 K | – | – | – | 95.4 ± 1
382.82 K | – | – | – | 271.9 ± 1.3
392.84 K | – | – | – | 349.2 ± 1.4
402.87 K | – | – | – | 443.3 ± 1.6
412.66 K | – | – | – | 553.4 ± 1.9
422.65 K | – | – | – | 684.8 ± 2.2
432.89 K | – | – | – | 835.3 ± 2.6
443.2 K | – | – | – | 1011.6 ± 3.2
453.14 K | – | – | – | 1212.9 ± 3.8
473.46 K | – | – | – | 1720.7 ± 5.4
Direct measurement | – | 1976 ± 5 | – | –
Visual observation in an unstirred cell | – | – | 482.02 ± 0.11 | –

COCC(F)(F)C(F)F [1,1,2,2-tetrafluoro-3-methoxypropane]
Details | Critical density [kg/m3] | Critical pressure [kPa] | Critical temperature [K] | vapor or sublimation pressure [kPa]
– | 453 ± 2 | – | – | –
342.68 K | – | – | – | 84.8 ± 1
347.65 K | – | – | – | 101.2 ± 1.1
352.72 K | – | – | – | 120.5 ± 1.1
362.75 K | – | – | – | 166.1 ± 1.1
372.76 K | – | – | – | 222.7 ± 1.2
382.79 K | – | – | – | 293.4 ± 1.3
392.8 K | – | – | – | 379.9 ± 1.5
402.8 K | – | – | – | 484.3 ± 1.8
412.88 K | – | – | – | 610.7 ± 2.1
422.91 K | – | – | – | 758.8 ± 2.5
432.93 K | – | – | – | 934.8 ± 3
442.97 K | – | – | – | 1138.1 ± 3.7
452.99 K | – | – | – | 1373.5 ± 4.5
463.01 K | – | – | – | 1642.8 ± 5.3
473.02 K | – | – | – | 1952 ± 6.3
480.13 K | – | – | – | 2197.3 ± 7.1
489.95 K | – | – | – | 2573.3 ± 8.3
499.77 K | – | – | – | 3005.9 ± 9.7
505.06 K | – | – | – | 3262.8 ± 11
505.35 K | – | – | – | 3278.9 ± 11
Direct measurement | – | 3279 ± 6 | – | –
Visual observation in an unstirred cell | – | – | 505.35 ± 0.13 | –

FC(F)OCC(F)(F)F [1,1,1-trifluoro-2-(difluoromethoxy)ethane]
Details | Critical pressure [kPa] | Critical temperature [K] | vapor or sublimation pressure [kPa]
– | 3457 ± 19 | 444.88 ± 0.31 | –
294.35 K | – | – | 72.3 ± 1
298.14 K | – | – | 84.3 ± 1
300.2 K | – | – | 91.5 ± 1
303.14 K | – | – | 102.8 ± 1
313.12 K | – | – | 148.1 ± 1.1
323.16 K | – | – | 207.8 ± 1.2
333.19 K | – | – | 284.6 ± 1.3
343.23 K | – | – | 381.2 ± 1.5
353.26 K | – | – | 500.9 ± 1.8
363.3 K | – | – | 646.8 ± 2.1
373.34 K | – | – | 823 ± 2.6
383.37 K | – | – | 1031.9 ± 3.2
393.42 K | – | – | 1282.6 ± 4
403.45 K | – | – | 1575.8 ± 4.9
413.47 K | – | – | 1919.5 ± 6
423.52 K | – | – | 2334.2 ± 7.3
433.56 K | – | – | 2798.5 ± 8.7
443.56 K | – | – | 3339.2 ± 10

FC(C(F)(F)F)C(F)(F)OCC(F)(F)F (configuration not stated) [1,1,1,2,3,3-hexafluoro-3-(2,2,2-trifluoroethoxy)propane]
Details | Critical density [kg/m3] | Critical pressure [kPa] | Critical temperature [K] | vapor or sublimation pressure [kPa]
– | 563 ± 2 | – | – | –
302.76 K | – | – | – | 18.7 ± 1
312.63 K | – | – | – | 29.6 ± 1
322.65 K | – | – | – | 44.6 ± 1
332.64 K | – | – | – | 65.7 ± 1
342.72 K | – | – | – | 93.9 ± 1
352.73 K | – | – | – | 131 ± 1.1
362.77 K | – | – | – | 179.1 ± 1.1
372.79 K | – | – | – | 239.7 ± 1.2
382.83 K | – | – | – | 315.9 ± 1.4
392.84 K | – | – | – | 408 ± 1.5
402.89 K | – | – | – | 521.2 ± 1.8
412.92 K | – | – | – | 657.3 ± 2.1
422.94 K | – | – | – | 814.3 ± 2.6
432.97 K | – | – | – | 1004.4 ± 3.1
443 K | – | – | – | 1225.6 ± 3.8
453.02 K | – | – | – | 1480.3 ± 4.6
463.04 K | – | – | – | 1778.5 ± 5.5
473.06 K | – | – | – | 2125 ± 6.6
475.79 K | – | – | – | 2236.1 ± 7
Direct measurement | – | 2233 ± 11 | – | –
Visual observation in an unstirred cell | – | – | 475.74 ± 0.09 | –

COCC(F)(F)C(F)(F)C(F)(F)F [1,1,1,2,2,3,3-heptafluoro-4-methoxybutane]
Details | Critical density [kg/m3] | Critical pressure [kPa] | Critical temperature [K] | vapor or sublimation pressure [kPa]
– | 497 ± 2 | – | – | –
291.65 K | – | – | – | 12.1 ± 1
302.31 K | – | – | – | 20.4 ± 1
312.43 K | – | – | – | 32.3 ± 1
322.64 K | – | – | – | 48.9 ± 1
332.66 K | – | – | – | 71.5 ± 1
337.71 K | – | – | – | 85.4 ± 1
342.7 K | – | – | – | 101.2 ± 1
347.73 K | – | – | – | 119.2 ± 1.1
362.74 K | – | – | – | 189.2 ± 1.2
372.75 K | – | – | – | 250.2 ± 1.3
382.82 K | – | – | – | 326.6 ± 1.4
392.85 K | – | – | – | 419.6 ± 1.6
402.88 K | – | – | – | 531.3 ± 1.9
412.9 K | – | – | – | 664.3 ± 2.2
422.92 K | – | – | – | 820.3 ± 2.6
432.95 K | – | – | – | 1004.6 ± 3.2
442.98 K | – | – | – | 1216.4 ± 3.9
453 K | – | – | – | 1462.9 ± 4.7
463.01 K | – | – | – | 1746.1 ± 5.6
473.05 K | – | – | – | 2071.1 ± 6.7
478.44 K | – | – | – | 2266.3 ± 7.3
481.5 K | – | – | – | 2382.5 ± 7.6
481.66 K | – | – | – | 2389.1 ± 7.7
Direct measurement | – | 2381 ± 9 | – | –
Visual observation in an unstirred cell | – | – | 481.54 ± 0.17 | –
